{
  "source": "patent US20090275608A1",
  "about": "“Methods of diagnosing and treating parp-mediated diseases” (BiPar Sciences, Inc., priority 2008, published 2009)",
  "key": {"OVCAR-3 xenograft [1]": {"system": "OVCAR-3 xenograft", "assay": "human ovarian adenocarcinoma OVCAR-3 xenograft model of cancer", "format": "in vivo, mice", "description": "Xenograft cancer models can be employed to measure the effects of treatment of PARP and co-regulated gene modulators on cancer growth and progression.\nMoreover, ovarian adenocarcinoma OVCAR-3 cells produce IGF-I and IGF-II, and express IGF1R, supporting the existence of an autocrine loop."}, "HCC827 cells [2]": {"system": "HCC827 cells", "assay": "FACS cell cycle analysis (PI DNA content), Compound III with EGFR inhibitor", "format": "cell-based, human", "method": "(§1) The effects of Compound III and its nitroso metabolite on the cell cycle in cancer cell lines in combination with second agents were determined.\n(§2) Compound III and Compound III-1 compounds were tested in the presence of the second agent according the schedule indicated in the Table below.\n(§3) Cell Culture: Triple negative MDA-MB-468 human breast carcinoma, U251 human glioblastoma and lung adenocarcinoma HCC827 cells were cultured in Dulbecco Modified Eagle Medium with 10% fetal bovine serum. Cells were plated at a seeding density 10^5 per P100 or at 10^4 per P60 in growth media and incubated 12-18 h at 37° C., 5% CO2. Compounds with and without secondary agent (see Table 1) were added as a single dose for 72 hours. DMSO was used as a control. Following treatment, cells were analyzed with BrdU ELISA Assay (Roche Applied Science), FACS based cell cycle assay or TUNEL.\n(§4) Compounds: Compound III was dissolved directly from dry powder in DMSO (cat #472301, Sigma-Aldrich) for each separate experiment, then the entire volume of the stock solution was used to prepare 111 nM, 313 nM and 1 μM working concentrations in cell culture medium to avoid any possibility of precipitation and the corresponding loss of compound.\n(§5) PI Exclusion, Cell Cycle and TUNEL Assays (FACS): After the addition of drugs and incubation, cells were taken for counting and PI (Propidium Iodide) exclusion assay. One part of the cells was centrifuged and resuspended in 0.5 ml ice-cold PBS containing 5 μg/ml of PI. The other part of the cells was fixed in ice-cold 70% ethanol and stored in a freezer overnight. For cell cycle analysis, cells were stained with propidium iodide (PI) using standard procedures. Cellular DNA content was determined by flow cytometry using BD LSRII FACS, and the percentages of cells in G1, S or G2/M were determined using ModFit software."}, "MDA-MB-468 cells [3]": {"system": "MDA-MB-468 cells", "assay": "FACS cell cycle analysis (PI DNA content), Compound III with IGF1R inhibitor", "format": "cell-based, human", "conditions": "for G1 / G2/M / S / Sub-G1: MDA-MB-468", "method": "as §1, §2, §3, §4, §5"}, "HCC827 cells [4]": {"system": "HCC827 cells", "assay": "TUNEL apoptosis assay (FACS), Compound III with EGFR inhibitor", "format": "cell-based, human", "conditions": "GFT 2 nM + 201 0 μM", "method": "as §3, §4\n(§6) To detect apoptosis, the cells were labeled with the “In Situ Cell Death Detection Kit, Fluorescein” (Roche Diagnostics Corporation, Roche Applied Science, Indianapolis, Ind.). […] All cell samples were analyzed with a BD LSR II (BD Biosciences, San Jose, Calif.). […]"}, "OVCAR-3 xenograft [5]": {"system": "OVCAR-3 xenograft", "conditions": "previous studies, Gotlieb et al., 2006; cited from earlier work"}, "OVCAR-4 cells": {"system": "OVCAR-4 cells", "conditions": "OVCAR-4 cell line, Gotlieb et al., 2006; cited from earlier work"}, "OVCAR-3 cells": {"system": "OVCAR-3 cells", "conditions": "OVCAR-3 cell line, Gotlieb et al., 2006; cited from earlier work"}, "NFκB": {"system": "NFκB", "conditions": "multiple myeloma cells, Hideshima et al., 2002; cited from earlier work"}, "MDA-MB-468 cells [6]": {"system": "MDA-MB-468 cells", "assay": "cell counting and PI exclusion assay (cell survival), Compound III with IGF1R inhibitor", "format": "cell-based, human", "method": "as §3, §4\nas §5, with “The other part of the cells was fixed in ice-cold 70% ethanol and stored in a freezer overnight. For cell cycle analysis, cells were stained with propidium iodide (PI) using standard procedures.” left out"}, "MDA-MB-468 cells [7]": {"system": "MDA-MB-468 cells", "assay": "TUNEL apoptosis assay (FACS), Compound III with IGF1R inhibitor", "format": "cell-based, human", "method": "as §3, §4, §6"}, "MDA-MB-468 cells [8]": {"system": "MDA-MB-468 cells", "assay": "BrdU labeling assay (FACS / ELISA), Compound III with IGF1R inhibitor", "format": "cell-based, human", "method": "as §3, §4\nBromodeoxyuridine (BrdU) labeling assay and FACS-based cell cycle analysis: 50 μl of BrdU (Sigma Chemical Co., St. Louis, Mo.) stock solution (1 mM) was added to achieve final concentration of 10 μM BrdU. Then cells were incubated for 30 min at 37° C. and fixed in ice-cold 70% ethanol and stored at 4° C. overnight. […] All cell samples were analyzed with a BD LSR II (BD Biosciences, San Jose, Calif.). […]"}, "NF-κB": {"system": "NF-κB", "conditions": "HeLa cells; cited from earlier work"}},
  "note": "“Also recorded” adds a separate entry of the source.",
  "data": [
    {"smiles": "NC(=O)c1ccc(I)c([N+](=O)[O-])c1", "note": "[Compound III]", "values": [
      {"measurement": "tumor growth, combination of PARP inhibitor and IGF1R inhibitor", "setting": "OVCAR-3 xenograft [1]; Compound III combined with NVP-AEW541, expected from the single-agent data", "result": "inhibit tumor growth in mice even further"},
      {"measurement": "survival of mice", "setting": "OVCAR-3 xenograft [1]; OVCAR-3 xenograft, FIG. 18", "result": "improve survival of mice; also recorded: improval of survival of mice"},
      {"measurement": "tumor growth", "setting": "OVCAR-3 xenograft [1]; PARP1 inhibition by Compound III, OVCAR-3 xenograft in mice, FIG. 18", "result": "inhibit tumor growth"},
      {"measurement": "potentiation of the activity of the EGF-R inhibitor IRESSA", "setting": "HCC827 cells [2]; HCC827 cell line", "result": "potentiate the activity of the EGF-R inhibitor IRESSA®"},
      {"measurement": "potentiation of the activity of IGF-1R inhibitor Picropodophyllin (PPP)", "setting": "MDA-MB-468 cells [3]; triple negative breast cancer cells MDA-MB-468, FIG. 19", "result": "potentiates the activity of IGF-1R inhibitor Picropodophyllin (PPP)"}
    ]},
    {"smiles": "COc1cc2ncnc(Nc3ccc(F)c(Cl)c3)c2cc1OCCCN1CCOCC1", "note": "[GFT]", "values": [
      {"measurement": "G1", "setting": "HCC827 cells [2]; HCC827, GFT 2 nM + 201 0 μM", "result": 51.0},
      {"measurement": "G2/M", "setting": "HCC827 cells [2]; HCC827, GFT 2 nM + 201 0 μM", "result": 9.2},
      {"measurement": "S", "setting": "HCC827 cells [2]; HCC827, GFT 2 nM + 201 0 μM", "result": 34.4},
      {"measurement": "Sub-G1", "setting": "HCC827 cells [2]; HCC827, GFT 2 nM + 201 0 μM", "result": 3.4},
      {"measurement": "TUNEL(+)", "setting": "HCC827 cells [4]", "result": 6.2}
    ]},
    {"smiles": "Nc1ncnc2c1c(-c1cccc(OCc3ccccc3)c1)cn2C1CC(CN2CCC2)C1", "note": "(stereo not shown) [NVP-AEW541]", "values": [
      {"measurement": "growth of OVCAR-3 tumor", "setting": "OVCAR-3 xenograft [5]", "result": "can inhibit growth of OVCAR-3 tumor"},
      {"measurement": "growth of the cells", "setting": "OVCAR-4 cells", "result": "inhibited growth of the cells"},
      {"measurement": "growth of the cells", "setting": "OVCAR-3 cells", "result": "inhibited growth of the cells"}
    ]},
    {"smiles": "O=C(Nc1cc(Cl)cc2c1[nH]c1cnccc12)c1cccnc1", "note": "[PS-1145]", "values": [
      {"measurement": "NFκB activation", "setting": "NFκB", "result": "blocked NFκB activation"}
    ]},
    {"smiles": "COc1cc([C@@H]2c3cc4c(cc3[C@H](O)[C@H]3COC(=O)[C@@H]23)OCO4)cc(OC)c1OC", "note": "[Picropodophyllin]", "values": [
      {"measurement": "Vital Cell", "setting": "MDA-MB-468 cells [6]; PPP 200 nM + 201 0 uM", "result": 89},
      {"measurement": "Vital Cell", "setting": "MDA-MB-468 cells [6]; PPP 400 nM + 201 0 uM", "result": 60},
      {"measurement": "G1", "setting": "MDA-MB-468 cells [3]; PPP 200 nM + 201 0 uM", "result": 51.42},
      {"measurement": "G2/M", "setting": "MDA-MB-468 cells [3]; PPP 200 nM + 201 0 uM", "result": 15.01},
      {"measurement": "S", "setting": "MDA-MB-468 cells [3]; PPP 200 nM + 201 0 uM", "result": 30.22},
      {"measurement": "Sub-G1", "setting": "MDA-MB-468 cells [3]; PPP 200 nM + 201 0 uM", "result": 1.22},
      {"measurement": "G1", "setting": "MDA-MB-468 cells [3]; PPP 400 nM + 201 0 uM", "result": 37.29},
      {"measurement": "G2/M", "setting": "MDA-MB-468 cells [3]; PPP 400 nM + 201 0 uM", "result": 20.17},
      {"measurement": "S", "setting": "MDA-MB-468 cells [3]; PPP 400 nM + 201 0 uM", "result": 25.32},
      {"measurement": "Sub-G1", "setting": "MDA-MB-468 cells [3]; PPP 400 nM + 201 0 uM", "result": 7.77},
      {"measurement": "TUNEL(+)", "setting": "MDA-MB-468 cells [7]; PPP 200 nM + 201 0 uM", "result": 0.9},
      {"measurement": "TUNEL(+)", "setting": "MDA-MB-468 cells [7]; PPP 400 nM + 201 0 uM", "result": 4.1},
      {"measurement": "BrdU(−) S", "setting": "MDA-MB-468 cells [8]; PPP 200 nM + 201 0 uM", "result": 2.13},
      {"measurement": "BrdU(−) S", "setting": "MDA-MB-468 cells [8]; PPP 400 nM + 201 0 uM", "result": 9.45}
    ]},
    {"smiles": "CCc1c2c(nc3ccc(O)cc13)-c1cc3c(c(=O)n1C2)COC(=O)[C@]3(O)CC", "note": "[SN38, 7-ethyl-10-hydroxycamptothecin]", "values": [
      {"measurement": "NF-κB nuclear translocation and activation of NF-κB target genes", "setting": "NF-κB", "result": "induce NF-κB nuclear translocation and activation of NF-κB target genes"}
    ]},
    {"smiles": "CC(C)C[C@H](NC(=O)[C@H](Cc1ccccc1)NC(=O)c1cnccn1)B(O)O", "note": "[bortezomib]", "values": [
      {"measurement": "NFκB activation", "setting": "NFκB", "result": "blocked NFκB activation"}
    ]},
    {"smiles": "COc1cccc2c1C(=O)c1c(O)c3c(c(O)c1C2=O)C[C@@](O)(C(=O)CO)C[C@@H]3O[C@H]1C[C@H](N)[C@H](O)[C@H](C)O1", "note": "[doxorubicin]", "values": [
      {"measurement": "NF-κB nuclear translocation and activation of NF-κB target genes", "setting": "NF-κB", "result": "induce NF-κB nuclear translocation and activation of NF-κB target genes"}
    ]}
  ]
}
